Measured values taken from patent US7015236B2, “N-heteroarylnicotinamide derivatives” (Sankyo Agro Company, Limited, priority 2001, dated 2006).
Like-named read-outs stand apart in the source and are kept apart here.

Tested on: green peach aphid (Myzus persicae)
Experiment: Insecticidal test for green peach aphid (100 ppm), Test Example 1
Format: in vivo
Settings: 120 h
Experimental: Insecticidal test for green peach aphid (Myzus persicae) (100 ppm)
Water (30 ml) was put into a beaker, and a leaf of Komatsuna (Brassica var. rapa) was placed within the beaker such that the stem was immersed in water. On the leaf of Komatsuna, five green peach aphids were released and allowed to fertilize. Two days after the releasing, imagoes were removed and the number of larvae was counted.
A surfactant Newcol NE-710F (trademark, produced by Nippon Nyukazai Co., Ltd., 2%) was dissolved in aqueous acetone (95% aqueous solution, 98%) to prepare solution 1. Next, a dispersant Gousenol GLO5-S (trademark, produced by Nippon Nyukazai Co., Ltd., 0.2% aqueous solution, 0.2%) was dissolved in water (99.8%) to prepare solution 2.
To each of the compounds (8 mg) of the present invention, the above solution 1 (0.4 ml), the above solution 2 (0.4 ml) and water (8 ml) were added. Further, the compounds of the present invention were each diluted with water so that the concentration of each compound was 100 ppm {as a spreading agent, Gramin S (trademark, produced by Sankyo Co., Ltd.) was added so as to have a concentration of 0.01%}.
The above chemical liquid (8 ml) was sprayed on the leaf of Komatsuna by use of a rotary spraying tower. The leaf of Komatsuna was put back in the beaker. Then, the beaker was placed in a thermostatic chamber of 25° C. for 16 hours in the light and for 8 hours in the dark. 5 Days after the spraying, the number of dead insects was counted to calculate the mortality (%).

[1] = 100 ppm spray on Komatsuna leaf, larvae, counted 5 days after spraying, 25° C., read-out: mortality (%)

Structure (SMILES)	mortality at 100 ppm [1]	mortality at 100 ppm
CCOCN(C(=O)c1cnccc1C(F)(F)F)c1cc(C)no1 [Example 2, N-Ethoxymethyl-N-(3-methyl-5-isoxazolyl)-4-(trifluoromethyl)nicotinamide]	≥ 95%	–
Cc1noc(NC(=O)c2cnccc2C(F)(F)F)c1Cl [Example 3, N-(4-Chloro-3-methyl-5-isoxazolyl)-4-(trifluoromethyl)nicotinamide]	≥ 95%	–
CCc1cc(NC(=O)c2cnccc2C(F)(F)F)on1 [Example 5, N-(3-Ethyl-5-isoxazolyl)-4-(trifluoromethyl)nicotinamide]	≥ 95%	–
CC(C)c1cc(NC(=O)c2cnccc2C(F)(F)F)on1 [Example 6, N-(3-Isopropyl-5-isoxazolyl)-4-(trifluoromethyl)nicotinamide]	≥ 95%	–
O=Cc1cc(NC(=O)c2cnccc2C(F)(F)F)on1 [Example 7, N-(3-Formyl-5-isoxazolyl)-4-(trifluoromethyl)nicotinamide]	≥ 95%	–
O=C(Nc1cc(C=NO)no1)c1cnccc1C(F)(F)F [Example 8, N-(3-Hydroxyiminomethyl-5-isoxazolyl)-4-(trifluoromethyl)nicotinamide]	–	≥ 95%
N#Cc1cc(NC(=O)c2cnccc2C(F)(F)F)on1 [Example 9, N-(3-Cyano-5-isoxazolyl)-4-(trifluoromethyl)nicotinamide]	≥ 95%	–
COCc1cc(NC(=O)c2cnccc2C(F)(F)F)on1 [Example 10, N-(3-Methoxymethyl-5-isoxazolyl)-4-(trifluoromethyl)nicotinamide]	≥ 95%	–
O=C(Nc1oncc1Cl)c1cnccc1C(F)(F)F [Example 11, N-(4-Chloro-5-isoxazolyl)-4-(trifluoromethyl)nicotinamide]	≥ 95%	–
O=C(Nc1onc(C2CC2)c1Cl)c1cnccc1C(F)(F)F [Example 12, N-(4-Chloro-3-cyclopropyl-5-isoxazolyl)-4-(trifluoromethyl)nicotinamide]	≥ 95%	–
COCc1noc(NC(=O)c2cnccc2C(F)(F)F)c1Cl [Example 13, N-(4-Chloro-3-methoxymethyl-5-isoxazolyl)-4-(trifluoromethyl)nicotinamide]	≥ 95%	–
Cc1noc(NC(=O)c2cnccc2C(F)(F)F)c1Br [Example 14, N-(4-Bromo-3-methyl-5-isoxazolyl)-4-(trifluoromethyl)nicotinamide]	≥ 95%	–
Cc1cc(N(C)C(=O)c2cnccc2C(F)(F)F)on1 [Example 16, N-Methyl-N-(3-methyl-5-isoxazolyl)-4-(trifluoromethyl)nicotinamide]	≥ 95%	–
Cc1cc(N(CC#N)C(=O)c2cnccc2C(F)(F)F)on1 [Example 19, N-Cyanomethyl-N-(3-methyl-5-isoxazolyl)-4-(trifluoromethyl)nicotinamide]	≥ 95%	–
CSCN(C(=O)c1cnccc1C(F)(F)F)c1cc(C)no1 [Example 20, N-(3-Methyl-5-isoxazolyl)-N-methylthiomethyl-4-(trifluoromethyl)nicotinamide]	≥ 95%	–
Cc1noc(NC(=O)c2cnccc2C(F)(F)F)n1 [Example 21, N-(3-Methyl-[1,2,4]oxadiazol-5-yl)-4-(trifluoromethyl)nicotinamide]	≥ 95%	–
N#Cc1noc(NC(=O)c2cnccc2C(F)(F)F)c1Cl [Example 22, N-(4-Chloro-3-cyano-5-isoxazolyl)-4-(trifluoromethyl)nicotinamide]	≥ 95%	–
N#Cc1noc(NC(=O)c2cnccc2C(F)(F)F)c1F [Example 23, N-(4-Fluoro-3-cyano-5-isoxazolyl)-4-(trifluoromethyl)nicotinamide]	≥ 95%	–
O=C(Nc1oncc1Br)c1cnccc1C(F)(F)F [Example 24, N-(4-Bromo-5-isoxazolyl)-4-(trifluoromethyl)nicotinamide]	≥ 95%	–
CCOC(OCC)c1cc(NC(=O)c2cnccc2C(F)(F)F)on1 [Example 26, N-(3-Diethoxymethyl-5-isoxazolyl)-4-(trifluoromethyl)nicotinamide]	≥ 95%	–
CC(=O)N(C(=O)c1cnccc1C(F)(F)F)c1cc(C)no1 [Example 27, N-Acetyl-N-(3-methyl-5-isoxazolyl)-4-(trifluoromethyl)nicotinamide]	≥ 95%	–
CON=Cc1cc(NC(=O)c2cnccc2C(F)(F)F)on1 [Example 28, N-(3-Methoxyiminomethyl-5-isoxazolyl)-4-(trifluoromethyl)nicotinamide]	≥ 95%	–
CCOC(=O)c1cc(NC(=O)c2cnccc2C(F)(F)F)on1 [Example 29, N-(3-Ethoxycarbonyl-5-isoxazolyl)-4-(trifluoromethyl)nicotinamide]	≥ 95%	–

Structure (SMILES)	mortality at 100 ppm [1]	mortality at 100 ppm
O=C(c1cnccc1C(F)(F)F)N(C(=O)c1cnccc1C(F)(F)F)c1ccno1 [Example 30, 5-[N,N-Bis(4-trifluoromethylnicotinoyl)]aminoisoxazole]	≥ 95%	–
Cc1noc(NC(=O)c2cnccc2C(F)(F)F)c1C [Example 33, N-(3,4-Dimethyl-5-isoxazolyl)-4-(trifluoromethyl)nicotinamide]	≥ 95%	–
CCc1cnoc1NC(=O)c1cnccc1C(F)(F)F [Example 34, N-(4-Ethyl-5-isoxazolyl)-4-(trifluoromethyl)nicotinamide]	≥ 95%	–
CCCc1cnoc1NC(=O)c1cnccc1C(F)(F)F [Example 35, N-(4-Propyl-5-isoxazolyl)-4-(trifluoromethyl)nicotinamide]	≥ 95%	–
CC(C)c1cnoc1NC(=O)c1cnccc1C(F)(F)F [Example 36, N-(4-Isopropyl-5-isoxazolyl)-4-(trifluoromethyl)nicotinamide]	≥ 95%	–
O=C(Nc1oncc1C1CC1)c1cnccc1C(F)(F)F [Example 37, N-(4-Cyclopropyl-5-isoxazolyl)-4-(trifluoromethyl)nicotinamide]	≥ 95%	–
C=CCc1cnoc1NC(=O)c1cnccc1C(F)(F)F [Example 38, N-(4-Allyl-5-isoxazolyl)-4-(trifluoromethyl)nicotinamide]	≥ 95%	–
CCCCc1cnoc1NC(=O)c1cnccc1C(F)(F)F [Example 39, N-(4-Butyl-5-isoxazolyl)-4-(trifluoromethyl)nicotinamide]	≥ 95%	–
CC(C)Cc1cnoc1NC(=O)c1cnccc1C(F)(F)F [Example 40, N-(4-Isobutyl-5-isoxazolyl)-4-(trifluoromethyl)nicotinamide]	≥ 95%	–
O=C(Nc1oncc1C1CCC1)c1cnccc1C(F)(F)F [Example 41, N-(4-Cyclobutyl-5-isoxazolyl)-4-(trifluoromethyl)nicotinamide]	≥ 95%	–
O=C(Nc1oncc1C1CCCC1)c1cnccc1C(F)(F)F [Example 42, N-(4-Cyclopentyl-5-isoxazolyl)-4-(trifluoromethyl)nicotinamide]	≥ 95%	–
CCCCCCc1cnoc1NC(=O)c1cnccc1C(F)(F)F [Example 43, N-(4-Hexyl-5-isoxazolyl)-4-(trifluoromethyl)nicotinamide]	≥ 95%	–
CCCCCCc1cnoc1N(C(=O)c1cnccc1C(F)(F)F)C(=O)c1cnccc1C(F)(F)F [Example 44, 5-[N,N-Bis(4-trifluoromethylnicotinoyl)]amino-4-hexylisoxazole]	≥ 95%	–
O=C(Nc1oncc1Cc1ccccc1)c1cnccc1C(F)(F)F [Example 45, N-(4-Benzyl-5-isoxazolyl)-4-(trifluoromethyl)nicotinamide]	≥ 95%	–
O=C(Nc1oncc1CCc1ccccc1)c1cnccc1C(F)(F)F [Example 46, N-(4-Phenylethyl-5-isoxazolyl)-4-(trifluoromethyl)nicotinamide]	≥ 95%	–
COc1cnoc1NC(=O)c1cnccc1C(F)(F)F [Example 47, N-(4-Methoxy-5-isoxazolyl)-4-(trifluoromethyl)nicotinamide]	≥ 95%	–
COCc1noc(NC(=O)c2cnccc2C(F)(F)F)c1OC [Example 48, N-(4-Methoxy-3-methoxymethyl-5-isoxazolyl)-4-(trifluoromethyl)nicotinamide]	≥ 95%	–
CSc1cnoc1NC(=O)c1cnccc1C(F)(F)F [Example 49, N-(4-Methylthio-5-isoxazolyl)-4-(trifluoromethyl)nicotinamide]	≥ 95%	–
Cc1cnsc1N(C(=O)c1cnccc1C(F)(F)F)C(=O)c1cnccc1C(F)(F)F [Example 50, 5-[N,N-Bis(4-trifluoromethylnicotinoyl)]amino-4-methylthioisoxazole]	≥ 95%	–
O=C(Nc1oncc1Oc1ccccc1)c1cnccc1C(F)(F)F [Example 51, N-(4-Phenoxy-5-isoxazolyl)-4-(trifluoromethyl)nicotinamide]	≥ 95%	–
O=C(c1cnccc1C(F)(F)F)N(C(=O)c1cnccc1C(F)(F)F)c1oncc1Oc1ccccc1 [Example 52, 5-[N,N-Bis(4-trifluoromethylnicotinoyl)]amino-4-phenoxyisoxazole]	≥ 95%	–
O=C(Nc1oncc1-c1ccccc1)c1cnccc1C(F)(F)F [Example 53, N-(4-Phenyl-5-isoxazolyl)-4-(trifluoromethyl)nicotinamide]	≥ 95%	–
